PubChem BioAssay (NCI)
Several values for one entry are separate records, joined by “and”; a condition that tells them apart may be missing. Identical values can stand only once.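 Five concentrations, 48 hours, 96-well plates. The concentration for 50% growth inhibition is given as GI50. The concentration for full growth arrest is given as TGI.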 Where a SMILES comes first, the peptide text is derived from it. [ ]: non-standard residue; d: D form. The star is where a group is joined. Boc = CC(C)(C)OC(=O)*; Lac = C[CH](O)C(=O)O; OBn = c1ccc(CO*)cc1

Assays:
Test in all cases: NCI-60 cell line screen, 48 h; in the data active means GI50 below about 0.43 µM; inactive means the rest
[1] = test system: BT-549 breast
[2] = test system: CAKI-1 renal
[3] = test system: CCRF-CEM leukemia
[4] = test system: COLO 205 colon
[5] = test system: DU-145 prostate
[6] = test system: HCC-2998 colon
[7] = test system: HCT-116 colon
[8] = test system: HCT-15 colon
[9] = test system: HL-60(TB) leukemia
[10] = test system: HOP-62 NSCLC
[11] = test system: HOP-92 NSCLC
[12] = test system: HS 578T breast
[13] = test system: IGROV1 ovarian
[14] = test system: K-562 leukemia
[15] = test system: KM12 colon
[16] = test system: M14 melanoma
[17] = test system: MALME-3M melanoma
[18] = test system: MCF7 breast
[19] = test system: MDA-MB-231 breast
[20] = test system: MDA-MB-435
[21] = test system: MDA-N
[22] = test system: MOLT-4 leukemia
[23] = test system: NCI-H226 lung
[24] = test system: NCI-H23 lung
[25] = test system: NCI-H460 lung
[26] = test system: NCI-H522 lung
[27] = test system: NCI/ADR-RES ovarian
[28] = test system: OVCAR-3 ovarian
[29] = test system: OVCAR-5 ovarian
[30] = test system: OVCAR-8 ovarian
[31] = test system: PC-3 prostate
[32] = test system: RPMI-8226 leukemia
[33] = test system: RXF 393 renal
[34] = test system: SF-295 CNS
[35] = test system: SK-MEL-2 melanoma
[36] = test system: SK-MEL-28 melanoma
[37] = test system: SK-MEL-5 melanoma
[38] = test system: SK-OV-3 ovarian
[39] = test system: SN12C renal
[40] = test system: SNB-19 CNS
[41] = test system: SNB-75 CNS
[42] = test system: SR leukemia
[43] = test system: T-47D breast
[44] = test system: U251 CNS
[45] = test system: UO-31 renal
[46] = test system: 786-0 renal
[47] = test system: A498 renal
[48] = test system: A549 NSCLC
[49] = test system: ACHN renal
[50] = test system: EKVX NSCLC
[51] = test system: HT29 colon
[52] = test system: LOX IMVI melanoma
[53] = test system: OVCAR-4 ovarian
[54] = test system: SF-268 CNS
[55] = test system: SF-539 CNS
[56] = test system: SW-620 colon
[57] = test system: TK-10 renal
[58] = test system: UACC-257 melanoma
[59] = test system: UACC-62 melanoma

CC(OC(=O)C(Cc1ccccc1)NC(=O)C(Cc1ccccc1)NC(=O)OC(C)(C)C)C(=O)OCc1ccccc1 (stereo not drawn) (Boc-Phe-Phe-[Lac]-OBn; configuration not given here)
54.6 µM: TGI [18]
> 100 µM: TGI [1] | TGI [2] | TGI [3] | TGI [4] | TGI [5] | TGI [6] | TGI [7] | TGI [8] | TGI [9] | TGI [10] | TGI [11] | TGI [12] | TGI [13] | TGI [14] | TGI [15] | TGI [16] | TGI [17] | TGI [19] | TGI [20] | TGI [21] | TGI [22] | TGI [23] | TGI [24] | TGI [25] | TGI [26] | TGI [27] | TGI [28] | TGI [29] | TGI [30] | TGI [31] | TGI [32] | TGI [33] | TGI [34] | TGI [35] | TGI [36] | TGI [37] | TGI [38] | TGI [39] | TGI [40] | TGI [41] | TGI [42] | TGI [43] | TGI [44] | TGI [45]

CO[C@]1(c2ccc([N+](=O)[O-])cc2)Oc2ccccc2C(=O)[C@@]1(Nc1ccc(C=O)cc1)OC
> 10 µM: TGI [46] | TGI [47] | TGI [48] | TGI [49] | TGI [1] | TGI [2] | TGI [3] | TGI [4] | TGI [5] | TGI [50] | TGI [6] | TGI [7] | TGI [8] | TGI [9] | TGI [10] | TGI [12] | TGI [51] | TGI [13] | TGI [14] | TGI [15] | TGI [52] | TGI [16] | TGI [17] | TGI [18] | TGI [19] | TGI [20] | TGI [21] | TGI [22] | TGI [23] | TGI [24] | TGI [25] | TGI [27] | TGI [28] | TGI [53] | TGI [29] | TGI [30] | TGI [31] | TGI [32] | TGI [33] | TGI [54] | TGI [34] | TGI [55] | TGI [35] | TGI [36] | TGI [37] | TGI [38] | TGI [39] | TGI [40] | TGI [41] | TGI [42] | TGI [56] | TGI [43] | TGI [57] | TGI [44] | TGI [58] | TGI [59] | TGI [45]

O=C1NNC(=O)c2ccccc2SSc2ccccc2C(=O)NNC(=O)c2ccccc2SSc2ccccc21
50 µM and 72.1 µM: TGI [51]
50 µM and 8.18 µM: TGI [43]
42.6 µM and > 100 µM: TGI [17]
> 100 µM: TGI [6] | TGI [11] | TGI [12] | TGI [18] | TGI [45]
inactive: GI50 [46] 10 µM | GI50 [48] 11.3 µM | GI50 [49] 7.34 µM | GI50 [1] 14.1 µM | GI50 [2] 18.1 µM | GI50 [3] 1.99 µM | GI50 [5] 5 µM | GI50 [50] 10.5 µM | GI50 [7] 5.05 µM | GI50 [8] 4.61 µM | GI50 [11] > 100 µM | GI50 [12] > 100 µM | GI50 [51] 20.1 µM | GI50 [13] 6.66 µM | GI50 [14] 3.76 µM | GI50 [15] 42.3 µM | GI50 [52] 7.02 µM | GI50 [16] 6.28 µM | GI50 [17] 25.9 µM | GI50 [19] 11.4 µM | GI50 [20] 16.3 µM | GI50 [21] 11.9 µM | GI50 [24] 7.63 µM | GI50 [25] 31 µM | GI50 [26] 3.43 µM | GI50 [27] 14 µM | GI50 [30] 15.4 µM | GI50 [31] 24.7 µM | GI50 [54] 9.81 µM | GI50 [34] 16.3 µM | GI50 [55] 2.87 µM | GI50 [35] 4.93 µM | GI50 [36] 23.1 µM | GI50 [37] 42.1 µM | GI50 [38] > 100 µM | GI50 [39] 17 µM | GI50 [40] 6.35 µM | GI50 [42] 3.79 µM | GI50 [56] 6.81 µM | GI50 [43] 2.34 µM | GI50 [57] 70.9 µM | GI50 [44] 7.11 µM | GI50 [58] 45.2 µM | GI50 [59] 8.34 µM
50 µM and 73.8 µM: TGI [29]
23.8 µM: TGI [9]
50 µM and 33.6 µM: TGI [5]
30.2 µM and > 100 µM: TGI [54]
50 µM and 32.7 µM: TGI [42]
50 µM and 37.1 µM: TGI [8]
50 µM and 32.5 µM: TGI [16]
50 µM and > 100 µM: TGI [48] | TGI [49] | TGI [1] | TGI [2] | TGI [50] | TGI [7] | TGI [10] | TGI [13] | TGI [14] | TGI [15] | TGI [52] | TGI [19] | TGI [20] | TGI [21] | TGI [25] | TGI [27] | TGI [28] | TGI [53] | TGI [30] | TGI [31] | TGI [34] | TGI [55] | TGI [35] | TGI [36] | TGI [37] | TGI [38] | TGI [39] | TGI [40] | TGI [56] | TGI [57] | TGI [44] | TGI [58] | TGI [59]
50 µM and 17.3 µM: TGI [22]
50 µM and 14.5 µM: TGI [26]
50 µM and 59.8 µM: TGI [24]
35 µM and 11.8 µM: TGI [3]
> 50 µM: TGI [23] | TGI [33]
50 µM: TGI [4] | TGI [32] | TGI [41]
50 µM and 26.6 µM: TGI [46]

CN(C)c1ccc(C2CC(c3ccc4ccccc4c3O)=NN2)cc1 (configuration not stated)
51.5 µM: TGI [4]
59.7 µM: TGI [46]
90.2 µM: TGI [14]
70.5 µM: TGI [55]
66.8 µM: TGI [47]
92 µM: TGI [22]
85.5 µM: TGI [26]
51.7 µM: TGI [42]
> 100 µM: TGI [48] | TGI [49] | TGI [1] | TGI [2] | TGI [5] | TGI [6] | TGI [7] | TGI [8] | TGI [10] | TGI [11] | TGI [12] | TGI [51] | TGI [13] | TGI [15] | TGI [16] | TGI [17] | TGI [18] | TGI [19] | TGI [20] | TGI [21] | TGI [23] | TGI [24] | TGI [25] | TGI [27] | TGI [28] | TGI [53] | TGI [29] | TGI [30] | TGI [31] | TGI [32] | TGI [33] | TGI [54] | TGI [34] | TGI [35] | TGI [36] | TGI [37] | TGI [38] | TGI [39] | TGI [41] | TGI [56] | TGI [43] | TGI [57] | TGI [44] | TGI [58] | TGI [59] | TGI [45]
83.3 µM: TGI [3]

COc1cccc(-c2nc3ccccc3c(=O)[nH]2)c1
55.5 µM: TGI [51]
> 100 µM: TGI [4] | TGI [5] | TGI [9] | TGI [11] | TGI [14] | TGI [52] | TGI [16] | TGI [22] | TGI [24] | TGI [29] | TGI [30] | TGI [35] | TGI [42] | TGI [56]
44 µM: TGI [59]
82.2 µM: TGI [39]
37.4 µM: TGI [49]
51.8 µM: TGI [27]
51.6 µM: TGI [47] | TGI [8]
52.5 µM: TGI [17]
49.4 µM: TGI [48]
44.8 µM: TGI [54]
41.7 µM: TGI [31]
44.7 µM: TGI [44]
28.1 µM: TGI [46] | TGI [20]
50.3 µM: TGI [55]
65.8 µM: TGI [37]
56.6 µM: TGI [33]
54.3 µM: TGI [6]
60.8 µM: TGI [26]
46.7 µM: TGI [40]
87.7 µM: TGI [50]
47.9 µM: TGI [12]
86.9 µM: TGI [15]
58.9 µM: TGI [19]
48.2 µM: TGI [38]
37.1 µM: TGI [2] | TGI [10]
42 µM: TGI [25]
61.8 µM: TGI [1]
60.1 µM: TGI [7]
50.5 µM: TGI [43]
96.6 µM: TGI [36]
58.8 µM: TGI [13]
43.1 µM: TGI [18]
56.2 µM: TGI [58]
42.7 µM: TGI [28]
45.2 µM: TGI [45]
36.9 µM: TGI [21] | TGI [57]
88.9 µM: TGI [34]

N=C(N)c1ccc(/C=C/c2ccc(C(=N)N)cc2)cc1
> 100 µM: TGI [46] | TGI [48] | TGI [49] | TGI [1] | TGI [2] | TGI [3] | TGI [5] | TGI [50] | TGI [6] | TGI [7] | TGI [8] | TGI [10] | TGI [11] | TGI [12] | TGI [51] | TGI [13] | TGI [14] | TGI [15] | TGI [52] | TGI [16] | TGI [17] | TGI [18] | TGI [19] | TGI [20] | TGI [21] | TGI [22] | TGI [23] | TGI [24] | TGI [25] | TGI [26] | TGI [27] | TGI [28] | TGI [53] | TGI [29] | TGI [30] | TGI [31] | TGI [33] | TGI [54] | TGI [34] | TGI [36] | TGI [37] | TGI [39] | TGI [40] | TGI [41] | TGI [42] | TGI [56] | TGI [43] | TGI [44] | TGI [58] | TGI [59] | TGI [45]
65.2 µM: TGI [57]
73.7 µM: TGI [47]
87.3 µM: TGI [35]
